Residues, ends and D or L forms follow the SMILES beside them.
Tests used:
h-mT1R2-EX5/mT1R3 = h-mT1R2-EX5/mT1R3 (UniProt Q8TE23+Q925D8, A537S/A564V/A568V/A570T/A649T/A658V/A782V/E530V/E534N/E542M/E548N/F525Y/F665L/G696N/G701T/H528R/I490V/I510L/I518V/I595M/I643V/I645L/I692L/I695G/K504M/K626T/K714N/L521P/L571I/L578I/L610P/L631F/L636F/L639V/L688V/L702I/L734M/L800F/M492I/M616G/M682V/M690V/M748V/N540G/N541S/N721H/P638T/P824S/Q536L/Q546K/Q555R/Q676H/R498S/R667S/S501P/S547N/S550A/S628F/S663R/S670G/S681F/S703N/S727G/S784D/S804G/T529S/T549I/T609V/T629S/T642S/T705I/T706G/T716I/V508I/V512P/V557A/V585L/V613L/V617M/V673M/V687A/V691A/V694A/V718L/V741L/V774I/V791M/Y533F/Y615F/Y671F/Y769S/Y783H); settings: Table 4; genes h-mTEX5/mT3 (h-mT1R2-EX5, mT1R3); HEK293E cells
h-mT1R2-EX5/mT1R3, sequence (Q8TE23 with tags, fused parts or gaps with the stated changes limits assumed): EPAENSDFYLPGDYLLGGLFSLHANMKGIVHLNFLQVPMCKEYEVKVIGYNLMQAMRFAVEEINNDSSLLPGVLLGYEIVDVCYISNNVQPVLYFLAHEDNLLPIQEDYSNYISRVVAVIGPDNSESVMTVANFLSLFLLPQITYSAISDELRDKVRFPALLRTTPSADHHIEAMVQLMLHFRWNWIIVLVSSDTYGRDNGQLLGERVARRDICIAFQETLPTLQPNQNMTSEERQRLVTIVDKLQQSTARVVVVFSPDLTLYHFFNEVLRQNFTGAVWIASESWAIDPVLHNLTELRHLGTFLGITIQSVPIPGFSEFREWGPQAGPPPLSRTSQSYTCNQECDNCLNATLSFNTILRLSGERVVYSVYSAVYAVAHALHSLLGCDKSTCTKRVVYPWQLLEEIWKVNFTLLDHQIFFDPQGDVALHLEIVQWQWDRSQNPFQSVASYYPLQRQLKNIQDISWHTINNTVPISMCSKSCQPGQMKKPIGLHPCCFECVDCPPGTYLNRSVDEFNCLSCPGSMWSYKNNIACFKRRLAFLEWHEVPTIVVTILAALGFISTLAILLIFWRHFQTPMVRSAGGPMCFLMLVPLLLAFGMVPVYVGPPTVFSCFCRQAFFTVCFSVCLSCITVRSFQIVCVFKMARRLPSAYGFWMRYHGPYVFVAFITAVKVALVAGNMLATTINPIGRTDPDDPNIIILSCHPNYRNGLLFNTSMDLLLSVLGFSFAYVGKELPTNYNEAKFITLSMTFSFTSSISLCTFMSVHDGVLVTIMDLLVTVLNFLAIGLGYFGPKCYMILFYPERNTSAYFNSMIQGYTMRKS
h-mT1R2-EX5/mT1R3, sequence (Q925D8 21-858, stated change not applied): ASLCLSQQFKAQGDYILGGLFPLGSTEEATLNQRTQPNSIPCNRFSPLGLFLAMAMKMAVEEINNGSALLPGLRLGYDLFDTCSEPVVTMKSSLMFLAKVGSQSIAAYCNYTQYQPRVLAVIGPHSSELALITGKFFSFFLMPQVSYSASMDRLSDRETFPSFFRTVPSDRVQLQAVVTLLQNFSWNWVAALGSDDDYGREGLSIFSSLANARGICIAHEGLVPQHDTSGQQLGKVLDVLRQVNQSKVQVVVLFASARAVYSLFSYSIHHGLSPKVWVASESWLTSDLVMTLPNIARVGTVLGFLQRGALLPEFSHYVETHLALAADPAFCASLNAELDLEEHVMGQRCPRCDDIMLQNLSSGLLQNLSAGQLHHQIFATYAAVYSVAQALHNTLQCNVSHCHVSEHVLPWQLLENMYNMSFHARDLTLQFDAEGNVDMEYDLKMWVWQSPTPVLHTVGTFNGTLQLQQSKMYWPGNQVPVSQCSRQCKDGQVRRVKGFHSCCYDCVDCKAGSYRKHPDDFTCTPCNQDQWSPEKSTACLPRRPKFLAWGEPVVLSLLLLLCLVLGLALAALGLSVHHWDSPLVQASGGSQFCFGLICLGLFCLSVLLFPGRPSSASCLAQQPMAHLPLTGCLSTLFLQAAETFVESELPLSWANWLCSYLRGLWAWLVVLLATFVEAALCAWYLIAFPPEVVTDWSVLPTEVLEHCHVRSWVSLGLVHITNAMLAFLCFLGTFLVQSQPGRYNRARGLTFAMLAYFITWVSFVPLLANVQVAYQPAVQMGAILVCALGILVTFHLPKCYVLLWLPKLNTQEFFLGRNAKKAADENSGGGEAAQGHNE

hT1R2/T1R3mosaicB = hT1R2/T1R3mosaicB (UniProt Q8TE23+Q925D8, A558R/A588V/A645S/A698V/A702T/A793V/A807V/A88D/C582S/C678S/E725V/F541I/F612A/F622V/F695L/F71L/G86K/H728R/I152V/I617V/I706V/I740A/I803L/K555R/K565R/K818R/K827G/L151M/L560F/L684P/L68N/L72W/L735F/L823M/L825Q/M644L/M744T/M74L/N547G/N675D/P545F/P561R/P564S/P67S/Q123R/Q550E/Q611L/Q757R/Q795R/Q831P/R632Q/S112P/S124D/S576L/S595F/S610P/S635P/S637R/S679G/S717H/T109A/T542A/T663I/T694M/T813A/V120A/V573A/V584A/V718M/V723A/V729T/V738A/V805L/V812A/V821L/W599R/W676R/W824R/Y680C/Y794L); settings: Table 6; genes hT2/T1R3mB (hT1R2, T1R3mB); HEK293E cells
hT1R2/T1R3mosaicB, sequence (Q8TE23 20-839, stated change not applied): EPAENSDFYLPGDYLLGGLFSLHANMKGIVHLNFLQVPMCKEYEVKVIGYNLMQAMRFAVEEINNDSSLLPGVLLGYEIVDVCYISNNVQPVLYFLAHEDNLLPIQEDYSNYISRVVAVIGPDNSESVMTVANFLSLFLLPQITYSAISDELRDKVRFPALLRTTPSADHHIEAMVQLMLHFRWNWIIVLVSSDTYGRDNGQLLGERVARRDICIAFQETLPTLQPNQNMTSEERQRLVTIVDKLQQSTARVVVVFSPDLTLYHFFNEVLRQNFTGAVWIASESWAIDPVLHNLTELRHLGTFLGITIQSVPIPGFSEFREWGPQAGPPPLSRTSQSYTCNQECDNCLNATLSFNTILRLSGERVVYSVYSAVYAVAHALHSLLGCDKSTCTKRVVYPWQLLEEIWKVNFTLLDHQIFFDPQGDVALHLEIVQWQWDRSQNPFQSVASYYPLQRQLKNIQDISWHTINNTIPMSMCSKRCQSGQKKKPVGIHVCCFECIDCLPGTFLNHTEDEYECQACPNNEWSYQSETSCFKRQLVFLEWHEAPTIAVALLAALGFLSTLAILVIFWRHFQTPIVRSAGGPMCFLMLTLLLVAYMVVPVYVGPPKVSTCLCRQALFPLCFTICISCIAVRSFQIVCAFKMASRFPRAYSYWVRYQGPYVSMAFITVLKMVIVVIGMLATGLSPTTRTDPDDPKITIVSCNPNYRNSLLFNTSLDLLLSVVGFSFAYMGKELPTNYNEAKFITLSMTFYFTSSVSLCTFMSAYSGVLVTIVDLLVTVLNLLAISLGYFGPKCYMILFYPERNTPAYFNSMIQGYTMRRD
hT1R2/T1R3mosaicB, sequence (Q925D8 with tags, fused parts or gaps with the stated changes limits assumed): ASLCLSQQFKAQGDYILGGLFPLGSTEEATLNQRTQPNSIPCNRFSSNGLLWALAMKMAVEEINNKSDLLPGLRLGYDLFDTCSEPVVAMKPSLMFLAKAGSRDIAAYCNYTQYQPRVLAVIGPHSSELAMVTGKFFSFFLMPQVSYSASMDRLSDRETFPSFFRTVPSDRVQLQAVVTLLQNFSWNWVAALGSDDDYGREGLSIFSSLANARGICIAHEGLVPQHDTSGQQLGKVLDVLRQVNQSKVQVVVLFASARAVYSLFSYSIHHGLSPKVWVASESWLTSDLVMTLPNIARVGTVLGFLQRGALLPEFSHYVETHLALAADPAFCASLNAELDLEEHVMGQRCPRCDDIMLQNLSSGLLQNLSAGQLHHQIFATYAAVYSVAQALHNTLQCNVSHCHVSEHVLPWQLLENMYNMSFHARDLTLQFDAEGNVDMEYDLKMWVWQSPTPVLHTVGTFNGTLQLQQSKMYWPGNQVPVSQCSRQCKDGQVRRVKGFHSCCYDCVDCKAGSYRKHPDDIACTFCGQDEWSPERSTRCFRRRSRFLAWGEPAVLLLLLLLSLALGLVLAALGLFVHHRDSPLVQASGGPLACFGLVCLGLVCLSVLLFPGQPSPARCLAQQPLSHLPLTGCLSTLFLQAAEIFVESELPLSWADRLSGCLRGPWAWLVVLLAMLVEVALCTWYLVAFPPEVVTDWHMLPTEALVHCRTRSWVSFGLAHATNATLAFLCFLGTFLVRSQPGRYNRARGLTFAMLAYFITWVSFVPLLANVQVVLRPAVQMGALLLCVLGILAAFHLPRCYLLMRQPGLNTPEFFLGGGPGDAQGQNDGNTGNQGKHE

| Compound | S/N (h-mT1R2-EX5/mT1R3) | S/N (hT1R2/T1R3mosaicB) |
| --- | --- | --- |
| CC1=CC(=O)NS(=O)(=O)O1 [Acesulfame K, acesulfame potassium] | 3.7 | 5.5 |
| COC(=O)[C@H](Cc1ccccc1)NC(=O)[C@H](CC(=O)O)NCCCc1ccc(OC)c(O)c1 [Advantame, advantame] | 7.0 | 8.5 |
| COC(=O)[C@H](Cc1ccccc1)NC(=O)[C@@H](N)CC(=O)O [Aspartame, aspartame] (HELM PEPTIDE1{D.F.[CO[*:1]]}$$$$V2.0) | 5.5 | 5.4 |
| COc1ccc(CCC(=O)c2c(O)cc(O[C@@H]3O[C@H](CO)[C@@H](O)[C@H](O)[C@H]3O[C@@H]3O[C@@H](C)[C@H](O)[C@@H](O)[C@H]3O)cc2O)cc1O [NHDC, neohesperidin dihydrochalcone] | – | 4.8 |
| COC(=O)[C@H](Cc1ccccc1)NC(=O)[C@H](CC(=O)O)NCCC(C)(C)C [Neotame, neotame] | 5.2 | 6.0 |
| C[C@H](NC(=Nc1ccc(C#N)cc1)NCC(=O)O)c1ccccc1 [SC-45647, [3-[(S)-1-phenylethyl]-2-(4-cyanophenyl)guanidino]acetic acid] | 5.3 | 7.0 |
| O=C1NS(=O)(=O)c2ccccc21.[Na] [Saccharin Na, sodium saccharin] | 3.8 | 5.4 |
| OC[C@H]1O[C@H](O[C@]2(CCl)O[C@H](CCl)[C@@H](O)[C@@H]2O)[C@H](O)[C@@H](O)[C@H]1Cl [Sucralose, sucralose] | 5.9 | 4.1 |
| OC[C@H]1O[C@@](CO)(O[C@H]2O[C@H](CO)[C@@H](O)[C@H](O)[C@H]2O)[C@@H](O)[C@@H]1O [Sucrose, sucrose] | 3.7 | 4.7 |

Source: patent publication US9341616B2, “Sweet taste receptor chimeric proteins and use thereof” (AJINOMOTO CO., INC., priority 2014, dated 2016)
